Source: PMC5218480 (PLoS ONE, 2017)

System: MV-4-11 cells
Assay: Gene expression microarray analysis (Affymetrix PrimeView) and GSEA
Format: cell-based, human
Parameters: RFU PODN (11730768_x_at) / Fold change /veh PODN (11730768_x_at) / RFU LINC00158 (11744669_a_at) / Fold change /veh LINC00158 (11744669_a_at) / RFU DUSP10 (11751237_a_at) / Fold change /veh DUSP10 (11751237_a_at) / RFU ID3 (11757404_x_at) / Fold change /veh ID3 (11757404_x_at) / RFU PLEKHG5 (11737974_s_at) / Fold change /veh PLEKHG5 (11737974_s_at) / RFU LRRC4B (11730491_at) / Fold change /veh LRRC4B (11730491_at) / RFU GIMAP4 (11747438_a_at) / Fold change /veh GIMAP4 (11747438_a_at) / RFU KRT8 (11758183_x_at) / Fold change /veh KRT8 (11758183_x_at) / RFU CNN1 (11734310_a_at) / Fold change /veh CNN1 (11734310_a_at) / RFU VPS37D (11726825_at) / Fold change /veh VPS37D (11726825_at) / RFU C10orf10 (11716522_x_at) / Fold change /veh C10orf10 (11716522_x_at) / RFU KIR2DL2 /// KIR2DL4 /// KIR2DL5A /// KIR2DL5B /// KIR2DS1 /// KIR2DS2 /// KIR2DS3 /// KIR2DS4 /// KIR3DL3 /// KIR3DL3 /// KIR3DS1 (11738374_at) / Fold change /veh KIR2DL2 /// KIR2DL4 /// KIR2DL5A /// KIR2DL5B /// KIR2DS1 /// KIR2DS2 /// KIR2DS3 /// KIR2DS4 /// KIR3DL3 /// KIR3DL3 /// KIR3DS1 (11738374_at) / RFU C1QL1 (11718748_at) / Fold change /veh C1QL1 (11718748_at) / RFU TMPRSS4 (11747572_a_at) / Fold change /veh TMPRSS4 (11747572_a_at) / RFU HAMP (11756126_x_at) / Fold change /veh HAMP (11756126_x_at) / RFU RNFT2 (11725882_a_at) / Fold change /veh RNFT2 (11725882_a_at) / RFU NR4A2 (11747474_a_at) / Fold change /veh NR4A2 (11747474_a_at) / RFU ABCC12 (11746883_a_at) / Fold change /veh ABCC12 (11746883_a_at) / RFU TMEM136 (11760407_x_at) / Fold change /veh TMEM136 (11760407_x_at) / RFU CLDN22 /// WWC2 (11732394_at) / Fold change /veh CLDN22 /// WWC2 (11732394_at) / RFU HLA-DPB1 (11760878_x_at) / Fold change /veh HLA-DPB1 (11760878_x_at) / RFU SPINT1 (11716480_a_at) / Fold change /veh SPINT1 (11716480_a_at) / RFU GAP43 (11754022_s_at) / Fold change /veh GAP43 (11754022_s_at) / RFU A4GNT (11735810_at) / Fold change /veh A4GNT (11735810_at) / RFU PRB3 (11715151_x_at) / Fold change /veh PRB3 (11715151_x_at) / RFU TUBB4B (11761932_at) / Fold change /veh TUBB4B (11761932_at) / RFU CAPN14 (11732068_a_at) / Fold change /veh CAPN14 (11732068_a_at) / RFU TMCC2 (11721928_a_at) / Fold change /veh TMCC2 (11721928_a_at) / RFU IRGQ (11745062_a_at) / Fold change /veh IRGQ (11745062_a_at) / RFU FAM174B (11720279_a_at) / Fold change /veh FAM174B (11720279_a_at) / RFU TMPRSS4 (11748680_a_at) / Fold change /veh TMPRSS4 (11748680_a_at) / RFU FAM212B (11763350_a_at) / Fold change /veh FAM212B (11763350_a_at) / RFU PLEKHG5 (11743358_a_at) / Fold change /veh PLEKHG5 (11743358_a_at) / RFU ZSCAN30 (11745921_a_at) / Fold change /veh ZSCAN30 (11745921_a_at) / RFU CMKLR1 (11741424_a_at) / Fold change /veh CMKLR1 (11741424_a_at) / RFU LOC101060620 /// MAPK8IP1 (11723275_at) / Fold change /veh LOC101060620 /// MAPK8IP1 (11723275_at) / RFU SPTSSB (11747773_x_at) / Fold change /veh SPTSSB (11747773_x_at) / RFU PRSS12 (11739890_at) / Fold change /veh PRSS12 (11739890_at) / RFU BIN1 (11741810_x_at) / Fold change /veh BIN1 (11741810_x_at) / RFU WNT11 (11732464_a_at) / Fold change /veh WNT11 (11732464_a_at) / RFU C10orf10 (11716521_a_at) / Fold change /veh C10orf10 (11716521_a_at) / RFU C5orf56 (11738089_at) / Fold change /veh C5orf56 (11738089_at) / RFU CYB561 (11721691_x_at) / Fold change /veh CYB561 (11721691_x_at) / RFU ANKRD19P (11752326_a_at) / Fold change /veh ANKRD19P (11752326_a_at) / RFU OR2T12 /// OR2T33 /// OR2T8 (11738714_s_at) / Fold change /veh OR2T12 /// OR2T33 /// OR2T8 (11738714_s_at) / RFU VCAN (11748164_a_at) / Fold change /veh VCAN (11748164_a_at) / RFU JSRP1 (11732532_at) / Fold change /veh JSRP1 (11732532_at) / RFU KRTAP10-11 (11738290_x_at) / Fold change /veh KRTAP10-11 (11738290_x_at) / RFU MYO3A (11730013_a_at) / Fold change /veh MYO3A (11730013_a_at) / RFU EBF3 (11725865_a_at) / Fold change /veh EBF3 (11725865_a_at) / RFU CAMK2N1 (11719241_x_at) / Fold change /veh CAMK2N1 (11719241_x_at) / RFU C5orf56 (11738088_a_at) / Fold change /veh C5orf56 (11738088_a_at) / RFU OLFML3 (11715873_a_at) / Fold change /veh OLFML3 (11715873_a_at) / RFU LOC100653217 /// NTM (11731650_a_at) / Fold change /veh LOC100653217 /// NTM (11731650_a_at) / RFU MAPK11 (11762145_a_at) / Fold change /veh MAPK11 (11762145_a_at) / RFU FIZ1 (11724087_x_at) / Fold change /veh FIZ1 (11724087_x_at) / RFU OASL (11726364_x_at) / Fold change /veh OASL (11726364_x_at) / RFU SOX15 (11748057_x_at) / Fold change /veh SOX15 (11748057_x_at) / RFU CD79A (11719716_a_at) / Fold change /veh CD79A (11719716_a_at) / RFU HIST1H1D (11736915_at) / Fold change /veh HIST1H1D (11736915_at) / RFU CASKIN2 (11723855_a_at) / Fold change /veh CASKIN2 (11723855_a_at) / RFU LOC730098 (11760151_x_at) / Fold change /veh LOC730098 (11760151_x_at) / RFU OR4N2 (11742367_at) / Fold change /veh OR4N2 (11742367_at) / RFU PRRT2 (11749266_a_at) / Fold change /veh PRRT2 (11749266_a_at) / RFU SNX32 (11753110_a_at) / Fold change /veh SNX32 (11753110_a_at) / RFU CDHR5 (11726645_a_at) / Fold change /veh CDHR5 (11726645_a_at) / RFU RCAN1 (11760418_a_at) / Fold change /veh RCAN1 (11760418_a_at) / RFU FAM167A (11723789_a_at) / Fold change /veh FAM167A (11723789_a_at) / RFU FAM26E (11764081_at) / Fold change /veh FAM26E (11764081_at) / RFU ISYNA1 (11749810_s_at) / Fold change /veh ISYNA1 (11749810_s_at) / RFU ACY1 (11761880_at) / Fold change /veh ACY1 (11761880_at) / RFU 11764098_at / Fold change /veh 11764098_at / RFU SAMD14 (11745864_x_at) / Fold change /veh SAMD14 (11745864_x_at) / RFU NPB (11741838_a_at) / Fold change /veh NPB (11741838_a_at) / RFU TMPRSS6 (11731388_a_at) / Fold change /veh TMPRSS6 (11731388_a_at) / RFU KRTAP10-2 (11738614_at) / Fold change /veh KRTAP10-2 (11738614_at) / RFU ARHGAP8 /// PRR5-ARHGAP8 (11727945_x_at) / Fold change /veh ARHGAP8 /// PRR5-ARHGAP8 (11727945_x_at) / RFU KRTAP5-7 /// NADSYN1 (11734609_at) / Fold change /veh KRTAP5-7 /// NADSYN1 (11734609_at) / RFU RASL12 (11751679_a_at) / Fold change /veh RASL12 (11751679_a_at) / RFU CDKN2B (11736163_a_at) / Fold change /veh CDKN2B (11736163_a_at) / RFU PRF1 (11729649_at) / Fold change /veh PRF1 (11729649_at) / RFU, ZNF638 /// ZNF638-IT1 / Fold change vs veh, ZNF638 /// ZNF638-IT1 / RFU, PANK3 / Fold change vs veh, PANK3 / RFU, SH3YL1 / Fold change vs veh, SH3YL1 / RFU, ZEB2 / Fold change vs veh, ZEB2 / RFU, NRIP1 / Fold change vs veh, NRIP1 / RFU, PTTG1IP / Fold change vs veh, PTTG1IP / RFU, CAPN2 / Fold change vs veh, CAPN2 / RFU, MED14 / Fold change vs veh, MED14 / RFU, SNORA58 / Fold change vs veh, SNORA58 / RFU, C1orf63 / Fold change vs veh, C1orf63 / RFU, LRRFIP1 / Fold change vs veh, LRRFIP1 / RFU, NDUFAF7 / Fold change vs veh, NDUFAF7 / RFU, SLC12A2 / Fold change vs veh, SLC12A2 / RFU, IBTK / Fold change vs veh, IBTK / RFU, ESF1 / Fold change vs veh, ESF1 / Fold change vs veh, TMEM50B / RFU, TAOK1 / Fold change vs veh, TAOK1 / RFU, ACBD3 / Fold change vs veh, ACBD3 / RFU, TMA16 / Fold change vs veh, TMA16 / RFU, RWDD3 / Fold change vs veh, RWDD3 / RFU, BCAT1 / Fold change vs veh, BCAT1 / RFU, EDEM3 / Fold change vs veh, EDEM3 / RFU, TMEM33 / Fold change vs veh, TMEM33 / RFU, WDR75 / Fold change vs veh, WDR75 / RFU, AHCTF1 / Fold change vs veh, AHCTF1 / RFU, TFRC / Fold change vs veh, TFRC / RFU, ZDHHC17 / Fold change vs veh, ZDHHC17 / RFU, NOM1 / Fold change vs veh, NOM1 / RFU, ARL8B / Fold change vs veh, ARL8B / RFU, ZBTB11 / Fold change vs veh, ZBTB11 / RFU, TAMM41 / Fold change vs veh, TAMM41 / RFU, KIAA1704 /// LOC100996395 / Fold change vs veh, KIAA1704 /// LOC100996395 / RFU, ING1 / Fold change vs veh, ING1 / RFU, TRMT61B / Fold change vs veh, TRMT61B / RFU, FUBP3 / Fold change vs veh, FUBP3 / RFU, TP53 / Fold change vs veh, TP53 / RFU, TNKS2 / Fold change vs veh, TNKS2 / RFU, ZFP14 / Fold change vs veh, ZFP14 / RFU, ACTR2 / Fold change vs veh, ACTR2 / RFU, PPP3R1 / Fold change vs veh, PPP3R1 / RFU, PIK3R1 / Fold change vs veh, PIK3R1 / RFU, HNRNPA1 / Fold change vs veh, HNRNPA1 / RFU, RNF170 / Fold change vs veh, RNF170 / RFU, ZNF28 / Fold change vs veh, ZNF28 / RFU, RNGTT / Fold change vs veh, RNGTT / RFU, OGT / Fold change vs veh, OGT / RFU, BRD1 / Fold change vs veh, BRD1 / RFU, MARS / Fold change vs veh, MARS / RFU, ZNF655 / Fold change vs veh, ZNF655 / RFU, FAHD1 / Fold change vs veh, FAHD1 / RFU, BDP1 / Fold change vs veh, BDP1 / RFU, LRRCC1 / Fold change vs veh, LRRCC1 / RFU, ARID1A / Fold change vs veh, ARID1A / RFU, ZNF146 / Fold change vs veh, ZNF146 / RFU, ZNF330 / Fold change vs veh, ZNF330 / RFU, GPN3 / Fold change vs veh, GPN3 / RFU, C9orf123 / Fold change vs veh, C9orf123 / RFU, N4BP2L2 / Fold change vs veh, N4BP2L2 / RFU, ARFIP1 / Fold change vs veh, ARFIP1 / RFU, FAM179B / Fold change vs veh, FAM179B / RFU, BCL10 / Fold change vs veh, BCL10 / RFU, UHRF1BP1L / Fold change vs veh, UHRF1BP1L / RFU, BET1 / Fold change vs veh, BET1 / RFU, CNOT2 / Fold change vs veh, CNOT2 / RFU, ZNF268 / Fold change vs veh, ZNF268 / Fold change vs veh, ZNF507 / RFU, DGCR2 / Fold change vs veh, DGCR2 / RFU, WDSUB1 / Fold change vs veh, WDSUB1 / Fold change vs veh, HSP90B1 /// MIR3652 / RFU, ADSS / Fold change vs veh, ADSS / RFU, GK / Fold change vs veh, GK / RFU, ZNF148 / Fold change vs veh, ZNF148 / RFU, TAF9 / Fold change vs veh, TAF9 / RFU, SLC1A5 / Fold change vs veh, SLC1A5 / RFU, SLMO2 / Fold change vs veh, SLMO2 / RFU, ABCC4 / Fold change vs veh, ABCC4 / RFU, LOC101060439 /// RAP1B / Fold change vs veh, LOC101060439 /// RAP1B / RFU, RFX7 / Fold change vs veh, RFX7 / RFU, GTPBP10 / Fold change vs veh, GTPBP10 / RFU, CNEP1R1 / Fold change vs veh, CNEP1R1 / RFU, BIVM-ERCC5 /// ERCC5 / Fold change vs veh, BIVM-ERCC5 /// ERCC5 / RFU, ILF3 / Fold change vs veh, ILF3 / RFU 11762660_at / Fold change /veh 11762660_at / RFU VCAN (11757783_s_at) / Fold change /veh VCAN (11757783_s_at) / RFU DDX43 (11728927_at) / Fold change /veh DDX43 (11728927_at) / RFU KRT8 (11758188_x_at) / Fold change /veh KRT8 (11758188_x_at) / RFU NKD1 (11759106_at) / Fold change /veh NKD1 (11759106_at) / RFU SRD5A1 (11742802_a_at) / Fold change /veh SRD5A1 (11742802_a_at) / RFU TPSAB1 /// TPSB2 (11721975_s_at) / Fold change /veh TPSAB1 /// TPSB2 (11721975_s_at) / RFU GSTM3 (11746129_a_at) / Fold change /veh GSTM3 (11746129_a_at) / RFU IL23R (11737362_x_at) / Fold change /veh IL23R (11737362_x_at) / RFU TMEM51 (11727254_a_at) / Fold change /veh TMEM51 (11727254_a_at) / RFU PIWIL2 (11732686_x_at) / Fold change /veh PIWIL2 (11732686_x_at) / RFU ORM1 (11744905_x_at) / Fold change /veh ORM1 (11744905_x_at) / RFU CCDC152 (11743942_at) / Fold change /veh CCDC152 (11743942_at) / RFU ECM1 (11717891_a_at) / Fold change /veh ECM1 (11717891_a_at) / RFU IL23R (11748794_a_at) / Fold change /veh IL23R (11748794_a_at) / RFU TNFAIP8L3 (11732012_x_at) / Fold change /veh TNFAIP8L3 (11732012_x_at) / RFU MBOAT4 (11741988_at) / Fold change /veh MBOAT4 (11741988_at) / RFU 11764193_at / Fold change /veh 11764193_at / RFU TMEM53 (11763286_at) / Fold change /veh TMEM53 (11763286_at) / RFU MAGEB2 (11727129_at) / Fold change /veh MAGEB2 (11727129_at) / RFU TMEM200A (11744735_a_at) / Fold change /veh TMEM200A (11744735_a_at) / RFU CCDC152 (11751479_a_at) / Fold change /veh CCDC152 (11751479_a_at) / RFU FAM211A (11726209_a_at) / Fold change /veh FAM211A (11726209_a_at) / RFU RGS16 (11746705_a_at) / Fold change /veh RGS16 (11746705_a_at) / RFU VCAN (11755009_s_at) / Fold change /veh VCAN (11755009_s_at) / RFU RHOB (11743442_s_at) / Fold change /veh RHOB (11743442_s_at) / RFU RGS16 (11720943_a_at) / Fold change /veh RGS16 (11720943_a_at) / RFU RGS16 (11720944_at) / Fold change /veh RGS16 (11720944_at) / RFU, VPS4B / Fold change vs veh, VPS4B / RFU, CREB1 / Fold change vs veh, CREB1 / RFU, DNAJC13 / Fold change vs veh, DNAJC13 / RFU, GNAQ / Fold change vs veh, GNAQ / RFU, CDK5R1 / Fold change vs veh, CDK5R1 / RFU, ZRANB3 / Fold change vs veh, ZRANB3 / RFU, CUL4A / Fold change vs veh, CUL4A / RFU, CCNY / Fold change vs veh, CCNY / RFU, UFL1 / Fold change vs veh, UFL1 / RFU, COG3 / Fold change vs veh, COG3 / RFU, DIAPH2 / Fold change vs veh, DIAPH2 / RFU, SKA2 / Fold change vs veh, SKA2 / RFU, AFF3 / Fold change vs veh, AFF3 / RFU, LMF1 / Fold change vs veh, LMF1 / RFU, IPO11 / Fold change vs veh, IPO11 / RFU, DFFB / Fold change vs veh, DFFB / RFU, FOXP1 / Fold change vs veh, FOXP1 / RFU, CARD8 / Fold change vs veh, CARD8 / RFU, STRN3 / Fold change vs veh, STRN3 / RFU, ADK / Fold change vs veh, ADK / RFU, RASSF2 / Fold change vs veh, RASSF2 / RFU, WIPF1 / Fold change vs veh, WIPF1 / RFU, LARP1B / Fold change vs veh, LARP1B / RFU, RASA1 / Fold change vs veh, RASA1 / RFU, RB1 / Fold change vs veh, RB1 / RFU, PPFIA1 / Fold change vs veh, PPFIA1 / RFU, MAT2A / Fold change vs veh, MAT2A / RFU, CCT5 / Fold change vs veh, CCT5 / RFU, WDR92 / Fold change vs veh, WDR92 / RFU, CUX1 / Fold change vs veh, CUX1 / RFU, TTC7A / Fold change vs veh, TTC7A / RFU, TMEM135 / Fold change vs veh, TMEM135 / RFU, DEPTOR / Fold change vs veh, DEPTOR / RFU, CPM / Fold change vs veh, CPM / RFU, DNAJB6 / Fold change vs veh, DNAJB6 / RFU, CACNA2D3 / Fold change vs veh, CACNA2D3 / RFU, DTX4 / Fold change vs veh, DTX4 / RFU, TFCP2 / Fold change vs veh, TFCP2 / RFU, GMCL1 /// GMCL1P1 / Fold change vs veh, GMCL1 /// GMCL1P1 / RFU, AEBP2 / Fold change vs veh, AEBP2 / RFU, SNHG1 /// SNORD22 /// SNORD25 /// SNORD26 /// SNORD27 /// SNORD28 /// SNORD29 /// SNORD31 / Fold change vs veh, SNHG1 /// SNORD22 /// SNORD25 /// SNORD26 /// SNORD27 /// SNORD28 /// SNORD29 /// SNORD31 / Fold change (Aza/veh), C12orf56 (ProbeSet 11735607_a_at) / Fold change (ACY-1035/veh), C12orf56 (ProbeSet 11735607_a_at) / Fold change (Aza/veh), FGFR1OP (ProbeSet 11751329_s_at) / Fold change (ACY-1035/veh), FGFR1OP (ProbeSet 11751329_s_at) / Fold change (Aza/veh), VPS36 (ProbeSet 11739960_a_at) / Fold change (ACY-1035/veh), VPS36 (ProbeSet 11739960_a_at) / RFU SYPL1 (11715823_x_at) / Fold change /veh SYPL1 (11715823_x_at) / RFU IGFBP7 (11715501_s_at) / Fold change /veh IGFBP7 (11715501_s_at) / RFU REEP3 (11722064_at) / Fold change /veh REEP3 (11722064_at) / RFU IGLL1 (11728026_x_at) / Fold change /veh IGLL1 (11728026_x_at): dose or concentration left out as unconfirmed
Settings: MV-4-11 cells, 48 hours

Nc1ccc(-c2cccs2)cc1NC(=O)c1ccc2c(c1)cc(C1CC1)n2CCN1CCOCC1 [ACY-1035]
Fold change /veh NPB (11741838_a_at): 0.93
